The source of these data is ChEMBL document CHEMBL1138104, “Isolation, structure elucidation, antioxidative and immunomodulatory properties of two novel dihydrocoumarins from Aloe vera” (Bioorg Med Chem Lett, 2006).

For experiment [1], the system named is Peritoneal macrophage cell. Briefly: Enhancement of respiratory burst in rat peritoneal macrophage at 200 uM. The class given is functional, cell-based.
In experiment [2] the test system is Radical scavenging activity. Briefly: Inhibition of hydroxyl radical scavenging activity. The class given is functional. The conditions noted are these: dose or concentration not given here.
Experiment [3] has as its system Peritoneal macrophage cell. Briefly: Phagocytic function of rat peritoneal macrophage at 50-200 ug/ml. The experiment is classed as functional, cell-based.
Experiment [4] relates to Radical scavenging activity. Briefly: Inhibition of superoxide radical scavenging activity. The conditions noted are these: dose or concentration not given here. The class given is functional.

The source made the active and inactive calls. The calls are words filed in the database; no cut-off is given here.

`COc1cc(-c2c(O)cc3c(c2C)[C@@H](c2ccc(O)cc2)CC(=O)O3)oc(=O)c1`: the outcome in experiment [1] was Active. Besides, the inhibition (as a rule, the relative decrease from the control value, in per cent) is 43.7% in experiment [2] and 42.3% in experiment [4]. Moreover, the Activity entry in experiment [3] is “Dose-dependent effect”.

As to `CCOC(=O)C[C@H](c1ccc(O)cc1)c1c(O)cc(O)c(-c2cc(OC)cc(=O)o2)c1C`, in experiment [1], the outcome was inactive. In addition, the inhibition in experiment [2] is 42.3%; in experiment [4] it was 30.3%.
